# In US20060078540A1, “Dendritic cell nodes” (priority 2003, published 2006):
# System: bone marrow-derived dendritic cells
# Experiment: Migration filter chemotaxis assay (chemotaxis index)
# Format: cell-based
# Description: The formyl peptide fMLP (formyl-Met-Leu-Phe) chemoattractant has been studied in addition to the protein chemokine MIP-3α. The formyl peptide is a bacterial byproduct that attracts DC's to sites of infection. It has been reported in the literature to be attractive for iDC's in mice and humans. […] For these experiments, DC's were placed on the top of a migration filter containing 5-μm pores with a reservoir of fMLP (or MIP-3α) at the indicated concentration on the other side. After 90 minutes, the number of cells migrating in response to the chemoattractants was counted and compared to controls. In FIG. 18, CI is the chemotaxis index, defined as (number of migrated cells in chemokine)/(number of migrated cells in control without chemokine).
# The literature reports CI up to ≈5 max for bone-marrow-derived dendritic cells (BMDC's), but this experiment was carried out on late-stage DC cultures (DC's are starting to mature on Day 7) and the culture was not purified, thus a significant contamination with neutrophils is likely present; thus the real CI is possibly higher.
Substance,"concentration giving maximal migration (previous experiments, in line with literature reports)","maximal potency of attraction of dendritic cells (5-μm pore migration filter, 90 minutes, Day 7 unpurified cultures, high concentrations of fMLP)"
MIP-3α: protein chemokine,1 µg/mL,–
formyl-Met-Leu-Phe [fMLP],–,comparable to MIP-3α
